From patent US11053314B2, “Methods to eliminate cancer stem cells by targeting CD47” (The U.S.A, as represented by the Secretary, Department of …, priority 2014, dated 2021)
Entries after “also recorded” stand apart in the source; their conditions may differ.

What was measured:
[1] = tested on: bCSCs derived from MDA-MB-231; test: BrdU cell proliferation assay, bCSCs from MDA-MB-231; format: cell-based, human; settings: bCSC from MDA-MB-231
Protocol: To assess the effect of B6H12 on CSC proliferation, bCSC from MDA-MB-231 cells were treated with B6H12 or an isotype-matched control antibody, and proliferation was assessed by bromodeoxyuridine (BrdU) incorporation (FIG. 20A). […] We addressed this question by using a CRISPR vector (based on pX330-U6-Chimeric_BB-CBh-hSpCas9; Cong et al., Science. 339(6121):819-23, 2013, PMID: 23287718; sequence and other information available online at addgene.org/42230/) designed to specifically disrupt the CD47 gene in MDA-MB-231 cells (FIGS. 22A and 22B), using the following gRNA targeting sequence: 5′ CTACTGAAGTATACGTAAG ngg 3′ (PC200.Hcd47.g3a; SEQ ID NO: 2). PC200.Hcd47.g3a was transfected into bCSCs derived from MDA-MB-231 using a NUCLEOFECTOR™ kit (Lonza, Switzerland). CD47 negative cells were sorted using FACS analysis. CD47^neg bCSCs cells were expanded in culture and cell proliferation was measured using BrdU cell proliferation kit (EMD Millipore).
Approximately 8,000 cells were plated per well on 96-well plates and incubated overnight at 37° C. The cells were treated with B6H12 or isotype control antibody (1 μg/ml) for 24 h. BrdU was added for 4 or 24 h as indicated in the figures, and BrdU incorporation was quantified using a BrdU Cell Proliferation Kit according to the manufacturer's instructions (EMD Millipore). […]

[2] = tested on: several breast cancer cell lines; settings: ligation of CD47; cited from earlier work
MDA-MB-231 and bCSCs = test: Mitochondrial energetics, extracellular flux (Seahorse Analyzer); format: cell-based, human; settings: 1 μg/ml
Protocol: The control MDA-MB-231 and bCSCs were plated using XF24 well plates for 1-4 days. Mitochondrial energetics was measured using extracellular flux assay kits. FIG. 12A) B6H12 (1 μg/ml) alters mitochondrial energetics in bCSCs but not in control MDA-MB-231 cells. FIGS. 12B & 12C) Long term treatment of bCSC with B6H12 (1 μg/ml) leads to decrease in basal oxygen consumption rate (OCR) due to decreased ATP associated OCR and decreases reserve mitochondrial metabolic capacity. […] The cells were immunostained using BrdU antibody and mounted with Vectashield DAPI. The confocal images were taken using a Zeiss 710 microscope at 63×. FIGS. 12E & 12F) Control MDA-MB-231 cells and bCSCs were treated with control or B6H12 Ab at 0.1, 1, 2 and 5 […] for 72 h. The cell proliferation was measured using CellTiter 96® Aqueous Non-Radioactive Cell Proliferation Assay (MTS) according to manufacturers' instructions.
B6H12 increased the basal oxygen consumption rate (OCR) at day 1 and day 3 but this was lost at day 4, when both the basal and spare metabolic capacity were decreased. The CD47 ligand TSP1 had less effect than the CD47 antibody. B6H12 decreased asymmetric division and proliferation measured by the MTS assay (FIGS. 12D-12F).

E-cadherin = E-cadherin mRNA expression (FIG. 23); format: cell-based
Excerpt: FIG. 23 is a bar graph showing that 7N3 peptide increase mRNA expression of E-cadherin.

[3] = tested on: miR let7-family from cellular RNA of MDA-MB-231; test: Real time PCR of let-7 family miRNAs (Ct values, Table 4); format: cell-based, human
Protocol: (FIG. 28C & FIG. 28D) The differentiated and bCSCs cells were treated with B6H12 Ab for 24 h. The total miRNA was extracted and let-7 family miRNAs were analyzed using real time PCR. Relative expression of let-7a-2miRNA in differentiated and bCSCs cells was determined using U6 as control. (FIG. 28E) EGFR mRNA expression on EVs derived from MDA-MB-231, bCSCs, T47D1 and MCF7 cells. The cells were treated with control or B6H12 antibody for 6 h using AB serum media. (FIG. 28F) Protein expression of EGFR in the presence or absence of B6H12 for 24 h using FACS sorted CD44^+/CD24-bCSCs from MDA-MB-231, T47D1 and MCF7 cell lines. FIG. 28G) Relative expression of let-7a-2miRNA from EVs. FIG. 28H) Amplification and expression of let-7a-3 miRNA from EV […].
CSC-depleted MDA-MB-231 and bCSCs were plated at 1×10^6 cells in 6-well plates and were-treated with B6H12 or Isotype control antibody (1 μg/ml) for 36 h. Total RNA was extracted using TriPure (Roche). One μg of total RNA was used for first strand cDNA synthesis using a Maxima kit (2-Step RT PCR, Thermo Scientific) according to the manufacturer's instructions. Real time PCR was performed using SYBR Green (Roche) on an MJ Research Opticon I instrument (Bio-Rad) with the amplification program as described in (Kaur et al., Matrix Biol, 37:49-59, 2014). β2-microglobulin (B2M), HPRT1 or 18S rRNA primers were used as control to normalize mRNA expression (Table 2).

EGFR = EGFR phosphorylation, IP-western blot in MDA-MB-231 cells and bCSCs; format: cell-based, human; settings: MDA-MB-231 cells; B6H12 15 min, EGF 5 min
Protocol: bCSC-depleted MDA-MB-231 cells and bCSCs were plated at 1×10^6 cells in 6-well plates. The cells were serum-starved for 2 hours using serum-free RPMI medium. The cells were pre-treated with B6H12 (1 μg/ml) for 20 min. Cell lysates were made using immunoprecipitation buffer (50 mM Tris-HCl, 150 mM NaCl, and 1% Nonidet P-40) along with 1× Complete Mini-protease inhibitor mixture (Roche Applied Science). Cell lysates were centrifuged at 13,000 rpm for 15 min. A BCA assay (Thermo scientific) was used to quantify total protein. DYNABEADS® magnetic separation beads (Invitrogen) were used for Immunoprecipitation. The DYNABEADS® magnetic separation beads were washed three times with activation buffer. The cell lysates were incubated in DYNABEADS®-protein G along with anti-EGFR and CD47 antibodies (1:500) and incubated for 24 hours at 4° C. on a shaker. The beads were washed three times with lysate buffer and heated at 95° C. for 5 min. The immunoprecipitated cell lysates were loaded on 4-12% NuPAGE gels (Life Technologies), and Western blotting was performed. For immunoprecipitation, primary antibody against phospho-EGFR (1:1000) was used. Normalization of protein lysates used for Western blotting was performed by reprobing with anti-β-actin (1:3000) or tubulin or EGFR antibodies.
MDA-MB-231 cells were pretreated with B6H12 (1 μg/ml) for 15 min. […]

Question: With “PC200.Hcd47.g3a: gRNA targeting sequence CTACTGAAGTATACGTAAG ngg (SEQ ID NO: 2) in CRISPR vector disrupting the CD47 gene (guide CTACTGAAGTATACGTAAGNGG)” as the substance, how does the “DNA synthesis (BrdU incorporation)” value [1] read?
Answer: diminished

Question: Which programmed cell death [2] does the source give for thrombospondin-1 [TSP1] here?
Answer: induce programmed cell death

Question: And the mitochondrial energetics (MDA-MB-231 and bCSCs)?
Answer: modestly changes; also recorded: less effect

Question: For FIRVVMYEGKK [7N3], which “mRNA expression of E-cadherin” value (E-cadherin) is on record?
Answer: increase

Question: With epidermal growth factor [EGF] as the substance, how does the “Ct value of miR let7-family 7a-2” value [3] read?
Answer: 26.09 ± 0.50

Question: And the “Ct value of miR let7-family 7a-3” value [3]?
Answer: 28.88 ± 0.71

Question: What about the “Ct value of miR let7-family 7f-2” value [3] of the same substance?
Answer: 33.24 ± 0.05

Question: What about the “Ct value of miR let7-family 7d” value [3] of the same substance?
Answer: 27.38 ± 0.18

Question: And the “Ct value 18S RNA” value ([3]; reference RNA)?
Answer: 17.65 ± 0.35

Question: What about the “EGFR phosphorylation at Y1068” value (EGFR) of the same substance?
Answer: significantly increased
